This note sets out measurements from patent publication US9675625B2, “Medicament comprising recombinant antibody against chemokine receptor CCR4” (KYOWA HAKKO KIRIN CO., LTD., priority 2003, dated 2017).

Where “and” joins values, the source holds several entries; their conditions need not be identical. Equal values may be shown once.

Test [1] deals with CCRF-CEM cells. Nature of the test: antitumor effect of KM 2760 and cyclophosphamide in combination, CCRF-CEM cells grafted in nude mouse. It counts as in vivo, Balb/c nude mouse. The settings on record: Day 4; KM 2760 800 μg per mouse Day 0 and Day 4; CPA 65 mg/kg Day 0; tail vein.
Protocol: CCRF-CEM cells (human T cell leukemia cell line) were suspended in RPMI 1640 medium (Gibco BRL) at a concentration of 2×10^8 cells/mL, and 100 μL of the suspension was grafted intradermally in the right flank of Balb/c nude mice (Nippon Crea, male). On Day 18 after the cell grafting, a diameter of a tumor was measured with calipers, and a tumor volume was calculated using formula 2 in Example 2.
Individuals having the tumor volume within the range of 116 to 349 mm^3 (on average 219 mm^3) were selected, and grouped such that the average tumor volume to be almost the same. Each of the following agent A to D was administered to the mice. Incidentally, the grouping day was defined as Day 0.
The experiment was conducted with groups each consisting of five mice. Each of the agents was diluted with a physiological saline (Otsuka Seiyaku), and the diluent was administered from the tail vein. On Day 4, the tumor volume was measured. The antitumor effect was evaluated by comparing an average values of a tumor volume change (V/V0) on each measurement day when the tumor volume on Day 0 in each group was defined as V0.
For test [2], the system named is CCRF-CEM cells. Nature of the test: antitumor effect of KM 2760 and Methotrexate in combination, CCRF-CEM cells grafted in nude mouse. The class given is in vivo, Balb/c nude mouse. The following applies: Day 7; KM 2760 800 μg per mouse Day 0 and Day 4; MTX 15 mg/kg Day 0 to Day 4; tail vein. Here is the method: CCRF-CEM cells (human T cell leukemia cell line) were suspended in RPMI 1640 medium (Gibco BRL) at a concentration of 2×10^8 cells/mL, and 100 μL of the suspension was grafted into the ventral skin of Balb/c nude mice (CLEA Japan Inc. male). On Day 17 after the cell grafting, a diameter of a tumor was measured with calipers, and a tumor volume was calculated using formula 2 in Example 2.
Individuals having the tumor volume within the range of 121 to 348 mm^3 (on average 195 mm^3) were selected, and grouped such that the average tumor volume to be almost the same. Each of the following agents A to D was administered to the mice. Incidentally, the grouping day was defined as Day 0.
(§1) B. Group of administering KM 2760 alone: 800 μg of KM2760 was administered per mouse on Day 0 and Day 4.
C. Group of administering Methotrexate (hereinafter referred to as MTX; Methotrexate injection solution, Nippon Weisledary K.K.) alone: 15 mg/kg of MTX was administered per mouse for 5 days from Day 0 to Day 4. […]
The experiment was conducted with groups each consisting of five mice. […] On Day 7, the tumor volume was measured. The antitumor effect was evaluated by comparing average values of a tumor volume change (V/V0) when the tumor volume on Day 0 in each group was defined as V0.

Test [3] relates to CCRF-CEM cells. The test is described as follows: antitumor effect of KM 2760 and vincristine in combination, CCRF-CEM cells grafted in nude mouse. The class given is in vivo, Balb/c nude mouse. The settings on record: Day 10; KM 2760 800 μg per mouse Day 0 and Day 4; VCR 0.55 mg/kg Day 0; tail vein.
The subject of test [4] is CCRF-CEM cells. Nature of the test: antitumor effect of KM 2760 and etoposide in combination, CCRF-CEM cells grafted in nude mouse. It counts as in vivo, Balb/c nude mouse. The following applies: Day 7; KM 2760 800 μg per mouse Day 0 and Day 4; VP-16 10 mg/kg Day 0 to Day 4; tail vein. The protocol: CCRF-CEM cells (human T cell leukemia cell line) were suspended in RPMI 1640 medium (Gibco BRL) at a concentration of 2×10^8 cells/mL, and 100 μL of the suspension was grafted into the ventral skin of Balb/c nude mice (Nippon Crea, male). On Day 17 after the cell grafting, a diameter of a tumor was measured with calipers, and a tumor volume was calculated using formula 2 in Example 2.
Individuals having the tumor volume within the range of from 121 to 348 mm^3 (on average 195 mm^3) were selected, and grouped such that the average tumor volume to be almost the same. Each of the following agents A to D was then administered to the mice. Incidentally, the grouping day was defined as Day 0.
as §1
C. Group of administering etoposide (hereinafter referred to as VP-16; Lastet injection, Nippon Kayaku Co., Ltd.) alone: 10 mg/kg of VP-16 was administered per mouse for 5 days from Day 0 to Day 4. […]
The experiment was conducted with groups each consisting of five mice. […] On Day 7, the tumor volume was measured. The antitumor effect was evaluated by comparing average values of a tumor volume change (V/V0) on Day 7 when the tumor volume on Day 0 in each group was defined as V0.

In test [5] the test system is CCR4/EL4 cells. The test is described as follows: antitumor effect of KM 2760 and IFN-α in combination, CCR4/EL4 cells grafted into tail vein of C57BL/6 mice, liver weight ratio. The class given is in vivo, C57BL/6 mouse. Here is the method: CCR4/EL4 cells were suspended in RPMI 1640 medium (manufactured by Gibco BRL) at a concentration of 5×10^5 cells/mL, and 100 μl of the suspension was grafted into the tail vein of C57BL/6 mice (CLEA Japan Inc., male, 8 weeks old). Further, mice were grouped into A to D, and each of the agents A to D were administered to the mice. Incidentally, the day on which the tumor was grafted was defined as Day 0.
B. Group of administering IFN-α alone: 5×10^4 units of IFN-α (Universal type I interferon, manufactured by PBL Biomedical Laboratories) was intravenously administered per mouse once a day for 5 days from Day 1 to Day 5.
The experiment was conducted with group A consisting of 7 mice and groups B, C and D each consisting of 6 mice. […] The weight of all mice was measured on Day 14. After etherization and exsanguination, mice were brought to euthanasia by dislocation of the cervical spine. The liver was extracted, and the weight of the liver was then measured. A ratio of the liver weight to the weight of each individual (hereinafter referred to as a weight ration of a liver) was calculated by percentage.
The antitumor effect was evaluated by comparing the liver weight ratio (average value of six mice) of untreated healthy mice measured simultaneously and the liver weight ratio of each group increased by metastasis of tumor cells.
Further, the residual amount of tumor cells in the liver in each group was calculated as a T/C value using the following formula. T/C=(average values of a weight ration of a liver of each group−average value of a weight ration of a liver of an untreated mouse)/(average value of a weight ration of a liver of a negative control group−average value of a weight ration of a liver of an untreated mouse) (Formula 4)

Test [6] concerns CCR4/EL4 cells. The test is described as follows: antitumor effect of KM 2760 and G-CSF in combination, CCR4/EL4 cells grafted into ventral skin of C57BL/6 mice. The class given is in vivo, C57BL/6 mouse. Here is the method: CCR4/EL4 cells (WO 01/64754) were suspended, in RPMI 1640 medium (Gibco BRL) at a concentration of 1×10^6 cells/mL, and 100 μL of the suspension was grafted into the right ventral skin of C57BL/6 mice (Nippon Crea, male, 8 weeks old). After, mice were grouped into A to D, each of the agents A to D were administered to each mouse. Incidentally, the day on which the tumor was grafted was defined as Day 0.
B. Group of administering KM 2760 alone: 100 μg of KM2760 was intravenously administered per mouse on Day 0 and Day 4.
C. Group of administering G-CSF alone: 10 μg of G-CSF (Neuup Injection 100, manufactured by Kyowa Hakko Kogyo Co., Ltd.) was subcutaneously administered per mouse once a day for 10 days from 4 days before the tumor grafting (hereinafter referred to as Day-4) to Day 5.
The experiment was conducted with group A consisting of 10 mice and groups B, C and D each consisting of 7 mice. […] Each of the diluent was administered at 100 μL. A diameter of a tumor was measured with calipers chronologically from Day 0 of each group. A tumor volume was calculated using formula 2 in Example 2.
Since the tumor death of the mouse was started in group A from Day 17 on, the evaluation of the tumor volume was finished on Day 14.
The antitumor effect (T/C value) in each group was evaluated by calculation using the following formula 3 for comparison between the average value of the tumor volume in group A and the average values of the tumor volume in each group on the final evaluation day (Day 14). (T/C value)=(average value of tumor volume in each group on Day 14)/average value of tumor volume in group A on Day 14) (Formula 3)

Test [7] relates to CCR4/EL4 cells.
Protocol: CCR4/EL4 cells (WO 01/64754) were suspended in RPMI 1640 medium (manufactured by Gibco BRL) at a concentration of 1×10^5 cells/mL, and 200 μL of the suspension was grafted into the peritoneal cavity of C57BL/6 mice (CLEA Japan Inc., male, 8 weeks old). After, mice was grouped into A to D, and each of the agents A to D was administered to each mouse. The day on which the tumor was grafted was defined as Day 0.
B. Group of administering M-CSF alone: 100 μg of M-CSF (Leucoprol, manufactured by Kyowa Hakko Kogyo Co., Ltd.) was intraperitoneally administered per mouse twice a day from Day-3 to Day-1 and once a day on Day 0, seven times in total.
The experiment was conducted with groups each consisting of 8 mice. […] The antitumor effect was evaluated by a ratio of average values of the number of survival days of mice in each group to an average value of the number of survival days of mice in the negative control group (hereinafter referred to as a life prolongation ratio).
Where [8] appears, read: KM 2760 50 μg i.p. Day 0, M-CSF 100 μg i.p. seven times.

Regarding `O=P1(N(CCCl)CCCl)NCCCO1` (stereo not drawn) [CPA, cyclophosphamide, reference compound], the “T/C (V/V0 of group divided by V/V0 of negative control group)” value in the test with CCRF-CEM cells [1] was 0.48.

As to `CN(Cc1cnc2nc(N)nc(N)c2n1)c1ccc(C(=O)N[C@@H](CCC(=O)O)C(=O)O)cc1` [MTX, Methotrexate, reference compound], in the test on CCRF-CEM cells [2], the “T/C (V/V0 of group divided by V/V0 of negative control group)” value amounted to 0.06.

For the molecule `CC[C@]1(O)C[C@H]2CN(CCc3c([nH]c4ccccc34)[C@@](C(=O)OC)(c3cc4c(cc3OC)N(C=O)[C@H]3[C@@](O)(C(=O)OC)[C@H](OC(C)=O)[C@]5(CC)C=CCN6CC[C@]43[C@@H]65)C2)C1` [VCR, vincristine, reference compound], the “T/C (V/V0 of group divided by V/V0 of negative control group)” value in the test with CCRF-CEM cells [3] was 0.49.

Consider `COc1cc([C@@H]2c3cc4c(cc3[C@@H](O[C@@H]3O[C@@H]5CO[C@@H](C)O[C@H]5[C@H](O)[C@H]3O)[C@H]3COC(=O)[C@H]23)OCO4)cc(OC)c1O` [VP-16, etoposide, reference compound], for which the “T/C (V/V0 of group divided by V/V0 of negative control group)” value in the test on CCRF-CEM cells [4] turned out to be 0.71.

For IFN-α, in the test with CCR4/EL4 cells [5] (Day 14, KM 2760 0.5 μg per mouse i.v. Day 1 and Day 5, IFN-α 5×10^4 units per mouse i.v. Day 1 to Day 5), the “T/C value (residual amount of tumor cells in the liver, from liver weight ratio)” value came out at 0.48. Also, the “antitumor effect compared to untreated group A (liver weight ratio)” value in the test with CCR4/EL4 cells [5] (FIG. 7, Day 14) is recorded as “low”.

B1: G-CSF: G-CSF (Neuup Injection 100, manufactured by Kyowa Hakko Kogyo Co., Ltd.) (protein, UniProt P09919 31-207, looked up)
Granulocyte …: TPLGPASSLPQSFLLKCLEQVRKIQGDGAALQEKLVSECATYKLCHPEELVLLGHSLGIPWAPLSSCPSQALQLAGCLSQLHSGLFLYQGLLQALEGISPELGPTLDTLQLDVADFATTIWQQMEELGMAPALQPTQGAMPAFASAFQRRAGGVLVASHLQSFLEVSYRVLRHLAQP
modifications: nartograstim
On to B1, for which, in the test with CCR4/EL4 cells [6] (Day 14, KM 2760 100 μg per mouse i.v. Day 0 and Day 4, G-CSF 10 μg per mouse s.c. once a day Day-4 to Day 5), the “T/C value (average tumor volume of group / group A)” value was 0.63. The “antitumor effect compared to untreated group A (tumor volume)” value in the test on CCR4/EL4 cells [6] (FIG. 6, up to Day 14) is listed as “low”.

B2: M-CSF: M-CSF (Leucoprol, manufactured by Kyowa Hakko Kogyo Co., Ltd.) (protein, UniProt P09603 33-554, looked up)
Macrophage colony-stimulating …: EEVSEYCSHMIGSGHLQSLQRLIDSQMETSCQITFEFVDQEQLKDPVCYLKKAFLLVQDIMEDTMRFRDNTPNAIAIVQLQELSLRLKSCFTKDYEEHDKACVRTFYETPLQLLEKVKNVFNETKNLLDKDWNIFSKNCNNSFAECSSQDVVTKPDCNCLYPKAIPSSDPASVSPHQPLAPSMAPVAGLTWEDSEGTEGSSLLPGEQPLHTVDPGSAKQRPPRSTCQSFEPPETPVVKDSTIGGSPQPRPSVGAFNPGMEDILDSAMGTNWVPEEASGEASEIPVPQGTELSPSRPGGGSMQTEPARPSNFLSASSPLPASAKGQQPADVTGTALPRVGPVRPTGQDWNHTPQKTDHPSALLRDPPEPGSPRISSLRPQGLSNPSTLSAQPQLSRSHSSGSVLPLGELEGRRSTRDRRSPAEPEGGPASEGAARPLPRFNSVPLTDTGHERQSEGSFSPQLQESVFHLLVPSVILVLLAVGGLLFYRWRRRSHQEPQRADSPLEQPEGSPLTQDDRQVELPV
Regarding B2, the “Number of survival days (each mouse)” value with CCR4/EL4 cells [7] (8 mice per group, KM 2760 50 μg per mouse i.p. Day 0, M-CSF 100 μg per mouse i.p. seven times Day-3 to Day 0, observation to Day 50) was 17 days (2×) and 18 days (3×) and 19 days (2×) and 22 days. Moreover, in the test with CCR4/EL4 cells [7] (setting [8]), the “Average number of survival days” value worked out at 18.8 days and the “Life prolongation ratio (average survival days of group / negative control group)” value is given as 0.974. The “antitumor effect in comparison with untreated Group A (survival)” value in the test with CCR4/EL4 cells [7] (Table 7) is listed as “no antitumor effect”.
